The values that follow come from US11236367B2, “Fatty acid decarboxylase and its uses” (COMMISSARIAT A L'ENERGIE ATOMIQUE ET AUX ENERGIES …, priority 2016, dated 2022).

Common to all, as to format: biochemical, Chlorella variabilis NC64A
Experiment [1] addresses T1, Chlorella GMC oxidoreductase (Chlorella variabilis, UniProt A0A248QE08).
T1 construct: 6 His-tagged thioredoxin (N, cleaved yes); TEV protease-cleavage site (N, cleaved yes); made in house; host or cells: E. coli BL21-CodonPlus (DE3)-RIL
The experiment in a line: Enzymatic assay with purified recombinant enzyme (GC-MS of products). Particulars: for conversion of substrate by the enzyme (product formed): purified recombinant enzyme, white light. As to the method:
(§1) All assays were performed in transparent glass vials sealed using caps with septum. Optimum pH was determined using a Teorell Stenhagen universal buffer (33 mM citric acid monohydrate, 33 mM phosphoric acid, 100 mM NaOH, 16.7 mM of boric acid, pH 8.5 adjusted with 1N HCl). Other assays were performed in 100 mM Tris HCl pH 8.5, 100 mM NaCl. Reaction mixtures (500 μL) typically contained 160 nM purified enzyme (stock ? solution 2.5 mg ml^−1) and 400 μM substrate (stock solution 10 mM in ethanol). In some assays, a lipase was used with the alkane synthase. In this case, substrate was a triacylglycerol. Generally, samples were shaken at 200 rpm during 15 min under LED-made white light at 2000 μmol ? photons m^−2s^−1. After the incubations, samples were heated at 95° C. during 15 min to stop the enzymatic reaction. Samples were cooled down and internal standard (hexadecane) was added (45 nmol from a 4.5 mM stock solution in chloroform). NaOH was then added to the reaction mixture (10 μL from a stock solution of 10 M) and samples were vortexed for 5 min. Then 250 μL of hexane was added and samples were vortexed for 5 min to extract alkanes and alkenes. The hexane phase was collected by centrifugation and analyzed by GC-MS-FID. The analysis was done by direct injection of 100 μl of the headspace into a GC-MS. In FIG. 11 activity on 1-^13C-palmitate was monitored by release of ^13CO2 using membrane inlet mass spectrometry. Illuminations were provided by CBT-120 LEDs (Luminous, Billerica) either blue (peak at 460 nm, 25 nm FWHM), or red (peak at 635 nm, 15 nm FWHM) at an intensity of 850 μmol photons m^−2 s^−1.

In experiment [2] the target is T2, alkane synthase activity of Chlorella homogenate (Chlorella variabilis, UniProt A0A248QE08).
T2 construct: Reaction mixtures contained 500 μL of each purification fraction; endogenous in cells; host or cells: Chlorella cells (homogenate, solubilized microsomal fraction, chromatography fractions)
T2 sequence (A0A248QE08 61-654 limits assumed): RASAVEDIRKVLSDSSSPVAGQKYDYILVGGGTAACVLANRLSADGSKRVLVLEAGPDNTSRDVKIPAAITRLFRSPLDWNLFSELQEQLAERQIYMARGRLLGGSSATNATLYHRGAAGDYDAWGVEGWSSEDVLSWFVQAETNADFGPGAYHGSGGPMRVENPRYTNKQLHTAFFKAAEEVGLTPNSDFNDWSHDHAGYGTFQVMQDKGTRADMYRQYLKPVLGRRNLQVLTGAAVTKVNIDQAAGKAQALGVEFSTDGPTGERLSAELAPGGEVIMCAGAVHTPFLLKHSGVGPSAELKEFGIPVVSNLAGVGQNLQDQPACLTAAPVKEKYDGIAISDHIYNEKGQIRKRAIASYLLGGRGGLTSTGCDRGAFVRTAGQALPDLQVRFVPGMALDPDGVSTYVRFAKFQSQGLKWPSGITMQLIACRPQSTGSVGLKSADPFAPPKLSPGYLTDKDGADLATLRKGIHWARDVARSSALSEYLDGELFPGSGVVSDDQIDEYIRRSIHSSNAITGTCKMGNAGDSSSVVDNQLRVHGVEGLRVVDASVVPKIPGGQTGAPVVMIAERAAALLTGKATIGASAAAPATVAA
The experiment in a line: Alkane synthase activity assay on Chlorella homogenate and purification fractions (SPME, GC-MS). Particulars: for effect of added co-factor on alkane synthase activity: added in different combinations to the solubilized microsomal fraction. As to the method: Enzymatic assays were performed in transparent glass vials sealed using caps with septum. Reaction mixtures contained 500 μL of each purification fraction, 200 μM of perdeuterated palmitic acid (10 mM stock solution in ethanol) and 45 nmol hexadecane as internal standard (4.5 mM stock solution in chloroform). Vials were agitated at 120 rpm overnight at 25° C. under a white light (intensity 120 μmol photons m^−2s^−1). Reaction was stopped by the addition of 10 μL NaOH 10 M through the septum using a syringe. Hydrocarbons produced were analyzed by incubating in the headspace of the vial a solid phase microextraction (SPME) fiber (DVB PDMS fused silica, 65 μm double-polar, Supelco) mounted on a holder. After 15 min incubation at room temperature the SPME fiber was immediately inserted into the injector of the GC-MS and desorbed at 250° C. GC-MS analysis was carried out as described below.

Experiment [3] concerns the target T1, Chlorella GMC oxidoreductase. The experiment in a line: 13CO2 release from 1-13C-palmitate with the purified enzyme (membrane inlet mass spectrometry). Particulars: palmitic acid labelled with 13C on the carboxylic group. As to the method: as §1, with “Then 250 μL of hexane was added and samples were vortexed for 5 min to extract alkanes and alkenes.” left out, “The analysis was done by direct injection of 100 μl of the headspace into a GC-MS.” left out, “Illuminations were provided by CBT-120 LEDs (Luminous, Billerica) either blue (peak at 460 nm, 25 nm FWHM), or red (peak at 635 nm, 15 nm FWHM) at an intensity of 850 μmol photons m^−2 s^−1.” left out
Online measurements of ^12CO2 (m/z=44) and ^13CO2 (m/z=45) were monitored using mass spectrometry (model Prima B, Thermo Scientific). […]

T1 sequence (A0A248QE08 62-654): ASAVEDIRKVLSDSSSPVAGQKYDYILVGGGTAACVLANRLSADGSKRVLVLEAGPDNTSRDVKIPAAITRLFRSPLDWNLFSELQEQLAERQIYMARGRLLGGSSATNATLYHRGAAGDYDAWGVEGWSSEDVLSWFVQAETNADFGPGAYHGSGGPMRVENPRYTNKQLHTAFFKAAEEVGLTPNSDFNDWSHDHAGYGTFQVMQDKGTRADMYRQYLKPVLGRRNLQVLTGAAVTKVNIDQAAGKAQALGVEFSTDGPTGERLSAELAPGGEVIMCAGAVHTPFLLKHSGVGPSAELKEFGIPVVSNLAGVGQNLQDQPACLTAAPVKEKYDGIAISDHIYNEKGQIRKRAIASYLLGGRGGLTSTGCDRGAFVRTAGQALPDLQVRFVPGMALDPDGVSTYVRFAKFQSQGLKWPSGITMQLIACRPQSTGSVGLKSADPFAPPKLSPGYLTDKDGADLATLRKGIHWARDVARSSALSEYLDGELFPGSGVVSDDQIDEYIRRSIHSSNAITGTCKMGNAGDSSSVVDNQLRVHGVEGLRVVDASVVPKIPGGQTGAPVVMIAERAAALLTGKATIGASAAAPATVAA

Turning to `O=C(O)CCCCCCCCCCCCCCCO` [16-OH palmitic acid], the “conversion of substrate by the enzyme (product formed)” value in experiment [1] is on record as “production of pentadecanol”.
Still for that read-out and setting: then `CC(C)CCCC(C)CCCC(C)CCCC(C)CC(=O)O` (stereo not drawn) [Phytanic acid, 3,7,11,15-tetramethylhexadecanoic acid], with “converted into branched alkanes”.
Turning to `CCCCCCCCCCCCCCCCC(=O)OCC(COC(=O)CCCCCCCCCCCCCCCC)OC(=O)CCCCCCCCCCCCCCCC` [TAGs, glyceryl triheptadecanoate], in experiment [1] (purified enzyme plus TAG lipase), the “conversion of substrate by the enzyme in presence of a TAG lipase” value is “production of hydrocarbons is observed”. In addition, in experiment [1], the “conversion of substrate by the enzyme (product formed)” value is given as “cannot use TAGs (triacylglycerol) directly as substrate”.
In the case of `NC(=O)C1=CN([C@@H]2O[C@H](COP(=O)(O)OP(=O)(O)OC[C@H]3O[C@@H](n4cnc5c(N)ncnc54)[C@H](OP(=O)(O)O)[C@@H]3O)[C@@H](O)[C@H]2O)C=CC1` [NADPH], the “effect of added co-factor on alkane synthase activity” value (shortened to “effect of added co-factor”) in experiment [2] is “None of them were found to increase the activity”.
In the case of `Nc1ncnc2c1ncn2[C@@H]1O[C@H](COP(=O)(O)OP(=O)(O)OP(=O)(O)O)[C@@H](O)[C@H]1O` [ATP], in experiment [2], the “effect of added co-factor” value was “None of them were found to increase the activity”.
For `CCCCCCCCCCCCCCC[13C](=O)O` [1-^13C-palmitate, reference compound], the “co-product released from labelled substrate” value in experiment [3] was “production of ^13CO2”.
`[2H]C([2H])([2H])C([2H])([2H])C([2H])([2H])C([2H])([2H])C([2H])([2H])C([2H])([2H])C([2H])([2H])C([2H])([2H])C([2H])([2H])C([2H])([2H])C([2H])([2H])C([2H])([2H])C([2H])([2H])C([2H])([2H])C([2H])([2H])C(=O)O` [Deuterated palmitic acid, perdeuterated (D31) palmitic acid]: the “formation of labelled pentadecane from labelled substrate” value in experiment [2] (Chlorella cell homogenate, overnight incubation in sealed vial) is on record as “labelled pentadecane could be detected”.
Take `NC(=O)c1ccc[n+]([C@@H]2O[C@H](COP(=O)([O-])OP(=O)(O)OC[C@H]3O[C@@H](n4cnc5c(N)ncnc54)[C@H](OP(=O)(O)O)[C@@H]3O)[C@@H](O)[C@H]2O)c1` [NADP]: in experiment [2], the “effect of added co-factor” value was “None of them were found to increase the activity”.
